Assay results taken from paper PMC5218480 (PLoS ONE, 2017).

Test system: MV-4-11 cells
Test: Gene expression microarray analysis (Affymetrix PrimeView) and GSEA
Assay type: cell-based, human
Design: RFU PODN (11730768_x_at) / Fold change /veh PODN (11730768_x_at) / RFU LINC00158 (11744669_a_at) / Fold change /veh LINC00158 (11744669_a_at) / RFU DUSP10 (11751237_a_at) / Fold change /veh DUSP10 (11751237_a_at) / RFU ID3 (11757404_x_at) / Fold change /veh ID3 (11757404_x_at) / RFU PLEKHG5 (11737974_s_at) / Fold change /veh PLEKHG5 (11737974_s_at) / RFU LRRC4B (11730491_at) / Fold change /veh LRRC4B (11730491_at) / RFU GIMAP4 (11747438_a_at) / Fold change /veh GIMAP4 (11747438_a_at) / RFU KRT8 (11758183_x_at) / Fold change /veh KRT8 (11758183_x_at) / RFU CNN1 (11734310_a_at) / Fold change /veh CNN1 (11734310_a_at) / RFU VPS37D (11726825_at) / Fold change /veh VPS37D (11726825_at) / RFU C10orf10 (11716522_x_at) / Fold change /veh C10orf10 (11716522_x_at) / RFU KIR2DL2 /// KIR2DL4 /// KIR2DL5A /// KIR2DL5B /// KIR2DS1 /// KIR2DS2 /// KIR2DS3 /// KIR2DS4 /// KIR3DL3 /// KIR3DL3 /// KIR3DS1 (11738374_at) / Fold change /veh KIR2DL2 /// KIR2DL4 /// KIR2DL5A /// KIR2DL5B /// KIR2DS1 /// KIR2DS2 /// KIR2DS3 /// KIR2DS4 /// KIR3DL3 /// KIR3DL3 /// KIR3DS1 (11738374_at) / RFU C1QL1 (11718748_at) / Fold change /veh C1QL1 (11718748_at) / RFU TMPRSS4 (11747572_a_at) / Fold change /veh TMPRSS4 (11747572_a_at) / RFU HAMP (11756126_x_at) / Fold change /veh HAMP (11756126_x_at) / RFU RNFT2 (11725882_a_at) / Fold change /veh RNFT2 (11725882_a_at) / RFU NR4A2 (11747474_a_at) / Fold change /veh NR4A2 (11747474_a_at) / RFU ABCC12 (11746883_a_at) / Fold change /veh ABCC12 (11746883_a_at) / RFU TMEM136 (11760407_x_at) / Fold change /veh TMEM136 (11760407_x_at) / RFU CLDN22 /// WWC2 (11732394_at) / Fold change /veh CLDN22 /// WWC2 (11732394_at) / RFU HLA-DPB1 (11760878_x_at) / Fold change /veh HLA-DPB1 (11760878_x_at) / RFU SPINT1 (11716480_a_at) / Fold change /veh SPINT1 (11716480_a_at) / RFU GAP43 (11754022_s_at) / Fold change /veh GAP43 (11754022_s_at) / RFU A4GNT (11735810_at) / Fold change /veh A4GNT (11735810_at) / RFU PRB3 (11715151_x_at) / Fold change /veh PRB3 (11715151_x_at) / RFU TUBB4B (11761932_at) / Fold change /veh TUBB4B (11761932_at) / RFU CAPN14 (11732068_a_at) / Fold change /veh CAPN14 (11732068_a_at) / RFU TMCC2 (11721928_a_at) / Fold change /veh TMCC2 (11721928_a_at) / RFU IRGQ (11745062_a_at) / Fold change /veh IRGQ (11745062_a_at) / RFU FAM174B (11720279_a_at) / Fold change /veh FAM174B (11720279_a_at) / RFU TMPRSS4 (11748680_a_at) / Fold change /veh TMPRSS4 (11748680_a_at) / RFU FAM212B (11763350_a_at) / Fold change /veh FAM212B (11763350_a_at) / RFU PLEKHG5 (11743358_a_at) / Fold change /veh PLEKHG5 (11743358_a_at) / RFU ZSCAN30 (11745921_a_at) / Fold change /veh ZSCAN30 (11745921_a_at) / RFU CMKLR1 (11741424_a_at) / Fold change /veh CMKLR1 (11741424_a_at) / RFU LOC101060620 /// MAPK8IP1 (11723275_at) / Fold change /veh LOC101060620 /// MAPK8IP1 (11723275_at) / RFU SPTSSB (11747773_x_at) / Fold change /veh SPTSSB (11747773_x_at) / RFU PRSS12 (11739890_at) / Fold change /veh PRSS12 (11739890_at) / RFU BIN1 (11741810_x_at) / Fold change /veh BIN1 (11741810_x_at) / RFU WNT11 (11732464_a_at) / Fold change /veh WNT11 (11732464_a_at) / RFU C10orf10 (11716521_a_at) / Fold change /veh C10orf10 (11716521_a_at) / RFU C5orf56 (11738089_at) / Fold change /veh C5orf56 (11738089_at) / RFU CYB561 (11721691_x_at) / Fold change /veh CYB561 (11721691_x_at) / RFU ANKRD19P (11752326_a_at) / Fold change /veh ANKRD19P (11752326_a_at) / RFU OR2T12 /// OR2T33 /// OR2T8 (11738714_s_at) / Fold change /veh OR2T12 /// OR2T33 /// OR2T8 (11738714_s_at) / RFU VCAN (11748164_a_at) / Fold change /veh VCAN (11748164_a_at) / RFU JSRP1 (11732532_at) / Fold change /veh JSRP1 (11732532_at) / RFU KRTAP10-11 (11738290_x_at) / Fold change /veh KRTAP10-11 (11738290_x_at) / RFU MYO3A (11730013_a_at) / Fold change /veh MYO3A (11730013_a_at) / RFU EBF3 (11725865_a_at) / Fold change /veh EBF3 (11725865_a_at) / RFU CAMK2N1 (11719241_x_at) / Fold change /veh CAMK2N1 (11719241_x_at) / RFU C5orf56 (11738088_a_at) / Fold change /veh C5orf56 (11738088_a_at) / RFU OLFML3 (11715873_a_at) / Fold change /veh OLFML3 (11715873_a_at) / RFU LOC100653217 /// NTM (11731650_a_at) / Fold change /veh LOC100653217 /// NTM (11731650_a_at) / RFU MAPK11 (11762145_a_at) / Fold change /veh MAPK11 (11762145_a_at) / RFU FIZ1 (11724087_x_at) / Fold change /veh FIZ1 (11724087_x_at) / RFU OASL (11726364_x_at) / Fold change /veh OASL (11726364_x_at) / RFU SOX15 (11748057_x_at) / Fold change /veh SOX15 (11748057_x_at) / RFU CD79A (11719716_a_at) / Fold change /veh CD79A (11719716_a_at) / RFU HIST1H1D (11736915_at) / Fold change /veh HIST1H1D (11736915_at) / RFU CASKIN2 (11723855_a_at) / Fold change /veh CASKIN2 (11723855_a_at) / RFU LOC730098 (11760151_x_at) / Fold change /veh LOC730098 (11760151_x_at) / RFU OR4N2 (11742367_at) / Fold change /veh OR4N2 (11742367_at) / RFU PRRT2 (11749266_a_at) / Fold change /veh PRRT2 (11749266_a_at) / RFU SNX32 (11753110_a_at) / Fold change /veh SNX32 (11753110_a_at) / RFU CDHR5 (11726645_a_at) / Fold change /veh CDHR5 (11726645_a_at) / RFU RCAN1 (11760418_a_at) / Fold change /veh RCAN1 (11760418_a_at) / RFU FAM167A (11723789_a_at) / Fold change /veh FAM167A (11723789_a_at) / RFU FAM26E (11764081_at) / Fold change /veh FAM26E (11764081_at) / RFU ISYNA1 (11749810_s_at) / Fold change /veh ISYNA1 (11749810_s_at) / RFU ACY1 (11761880_at) / Fold change /veh ACY1 (11761880_at) / RFU 11764098_at / Fold change /veh 11764098_at / RFU SAMD14 (11745864_x_at) / Fold change /veh SAMD14 (11745864_x_at) / RFU NPB (11741838_a_at) / Fold change /veh NPB (11741838_a_at) / RFU TMPRSS6 (11731388_a_at) / Fold change /veh TMPRSS6 (11731388_a_at) / RFU KRTAP10-2 (11738614_at) / Fold change /veh KRTAP10-2 (11738614_at) / RFU ARHGAP8 /// PRR5-ARHGAP8 (11727945_x_at) / Fold change /veh ARHGAP8 /// PRR5-ARHGAP8 (11727945_x_at) / RFU KRTAP5-7 /// NADSYN1 (11734609_at) / Fold change /veh KRTAP5-7 /// NADSYN1 (11734609_at) / RFU RASL12 (11751679_a_at) / Fold change /veh RASL12 (11751679_a_at) / RFU CDKN2B (11736163_a_at) / Fold change /veh CDKN2B (11736163_a_at) / RFU PRF1 (11729649_at) / Fold change /veh PRF1 (11729649_at) / RFU, ZNF638 /// ZNF638-IT1 / Fold change vs veh, ZNF638 /// ZNF638-IT1 / RFU, PANK3 / Fold change vs veh, PANK3 / RFU, SH3YL1 / Fold change vs veh, SH3YL1 / RFU, ZEB2 / Fold change vs veh, ZEB2 / RFU, NRIP1 / Fold change vs veh, NRIP1 / RFU, PTTG1IP / Fold change vs veh, PTTG1IP / RFU, CAPN2 / Fold change vs veh, CAPN2 / RFU, MED14 / Fold change vs veh, MED14 / RFU, SNORA58 / Fold change vs veh, SNORA58 / RFU, C1orf63 / Fold change vs veh, C1orf63 / RFU, LRRFIP1 / Fold change vs veh, LRRFIP1 / RFU, NDUFAF7 / Fold change vs veh, NDUFAF7 / RFU, SLC12A2 / Fold change vs veh, SLC12A2 / RFU, IBTK / Fold change vs veh, IBTK / RFU, ESF1 / Fold change vs veh, ESF1 / Fold change vs veh, TMEM50B / RFU, TAOK1 / Fold change vs veh, TAOK1 / RFU, ACBD3 / Fold change vs veh, ACBD3 / RFU, TMA16 / Fold change vs veh, TMA16 / RFU, RWDD3 / Fold change vs veh, RWDD3 / RFU, BCAT1 / Fold change vs veh, BCAT1 / RFU, EDEM3 / Fold change vs veh, EDEM3 / RFU, TMEM33 / Fold change vs veh, TMEM33 / RFU, WDR75 / Fold change vs veh, WDR75 / RFU, AHCTF1 / Fold change vs veh, AHCTF1 / RFU, TFRC / Fold change vs veh, TFRC / RFU, ZDHHC17 / Fold change vs veh, ZDHHC17 / RFU, NOM1 / Fold change vs veh, NOM1 / RFU, ARL8B / Fold change vs veh, ARL8B / RFU, ZBTB11 / Fold change vs veh, ZBTB11 / RFU, TAMM41 / Fold change vs veh, TAMM41 / RFU, KIAA1704 /// LOC100996395 / Fold change vs veh, KIAA1704 /// LOC100996395 / RFU, ING1 / Fold change vs veh, ING1 / RFU, TRMT61B / Fold change vs veh, TRMT61B / RFU, FUBP3 / Fold change vs veh, FUBP3 / RFU, TP53 / Fold change vs veh, TP53 / RFU, TNKS2 / Fold change vs veh, TNKS2 / RFU, ZFP14 / Fold change vs veh, ZFP14 / RFU, ACTR2 / Fold change vs veh, ACTR2 / RFU, PPP3R1 / Fold change vs veh, PPP3R1 / RFU, PIK3R1 / Fold change vs veh, PIK3R1 / RFU, HNRNPA1 / Fold change vs veh, HNRNPA1 / RFU, RNF170 / Fold change vs veh, RNF170 / RFU, ZNF28 / Fold change vs veh, ZNF28 / RFU, RNGTT / Fold change vs veh, RNGTT / RFU, OGT / Fold change vs veh, OGT / RFU, BRD1 / Fold change vs veh, BRD1 / RFU, MARS / Fold change vs veh, MARS / RFU, ZNF655 / Fold change vs veh, ZNF655 / RFU, FAHD1 / Fold change vs veh, FAHD1 / RFU, BDP1 / Fold change vs veh, BDP1 / RFU, LRRCC1 / Fold change vs veh, LRRCC1 / RFU, ARID1A / Fold change vs veh, ARID1A / RFU, ZNF146 / Fold change vs veh, ZNF146 / RFU, ZNF330 / Fold change vs veh, ZNF330 / RFU, GPN3 / Fold change vs veh, GPN3 / RFU, C9orf123 / Fold change vs veh, C9orf123 / RFU, N4BP2L2 / Fold change vs veh, N4BP2L2 / RFU, ARFIP1 / Fold change vs veh, ARFIP1 / RFU, FAM179B / Fold change vs veh, FAM179B / RFU, BCL10 / Fold change vs veh, BCL10 / RFU, UHRF1BP1L / Fold change vs veh, UHRF1BP1L / RFU, BET1 / Fold change vs veh, BET1 / RFU, CNOT2 / Fold change vs veh, CNOT2 / RFU, ZNF268 / Fold change vs veh, ZNF268 / Fold change vs veh, ZNF507 / RFU, DGCR2 / Fold change vs veh, DGCR2 / RFU, WDSUB1 / Fold change vs veh, WDSUB1 / Fold change vs veh, HSP90B1 /// MIR3652 / RFU, ADSS / Fold change vs veh, ADSS / RFU, GK / Fold change vs veh, GK / RFU, ZNF148 / Fold change vs veh, ZNF148 / RFU, TAF9 / Fold change vs veh, TAF9 / RFU, SLC1A5 / Fold change vs veh, SLC1A5 / RFU, SLMO2 / Fold change vs veh, SLMO2 / RFU, ABCC4 / Fold change vs veh, ABCC4 / RFU, LOC101060439 /// RAP1B / Fold change vs veh, LOC101060439 /// RAP1B / RFU, RFX7 / Fold change vs veh, RFX7 / RFU, GTPBP10 / Fold change vs veh, GTPBP10 / RFU, CNEP1R1 / Fold change vs veh, CNEP1R1 / RFU, BIVM-ERCC5 /// ERCC5 / Fold change vs veh, BIVM-ERCC5 /// ERCC5 / RFU, ILF3 / Fold change vs veh, ILF3 / RFU 11762660_at / Fold change /veh 11762660_at / RFU VCAN (11757783_s_at) / Fold change /veh VCAN (11757783_s_at) / RFU DDX43 (11728927_at) / Fold change /veh DDX43 (11728927_at) / RFU KRT8 (11758188_x_at) / Fold change /veh KRT8 (11758188_x_at) / RFU NKD1 (11759106_at) / Fold change /veh NKD1 (11759106_at) / RFU SRD5A1 (11742802_a_at) / Fold change /veh SRD5A1 (11742802_a_at) / RFU TPSAB1 /// TPSB2 (11721975_s_at) / Fold change /veh TPSAB1 /// TPSB2 (11721975_s_at) / RFU GSTM3 (11746129_a_at) / Fold change /veh GSTM3 (11746129_a_at) / RFU IL23R (11737362_x_at) / Fold change /veh IL23R (11737362_x_at) / RFU TMEM51 (11727254_a_at) / Fold change /veh TMEM51 (11727254_a_at) / RFU PIWIL2 (11732686_x_at) / Fold change /veh PIWIL2 (11732686_x_at) / RFU ORM1 (11744905_x_at) / Fold change /veh ORM1 (11744905_x_at) / RFU CCDC152 (11743942_at) / Fold change /veh CCDC152 (11743942_at) / RFU ECM1 (11717891_a_at) / Fold change /veh ECM1 (11717891_a_at) / RFU IL23R (11748794_a_at) / Fold change /veh IL23R (11748794_a_at) / RFU TNFAIP8L3 (11732012_x_at) / Fold change /veh TNFAIP8L3 (11732012_x_at) / RFU MBOAT4 (11741988_at) / Fold change /veh MBOAT4 (11741988_at) / RFU 11764193_at / Fold change /veh 11764193_at / RFU TMEM53 (11763286_at) / Fold change /veh TMEM53 (11763286_at) / RFU MAGEB2 (11727129_at) / Fold change /veh MAGEB2 (11727129_at) / RFU TMEM200A (11744735_a_at) / Fold change /veh TMEM200A (11744735_a_at) / RFU CCDC152 (11751479_a_at) / Fold change /veh CCDC152 (11751479_a_at) / RFU FAM211A (11726209_a_at) / Fold change /veh FAM211A (11726209_a_at) / RFU RGS16 (11746705_a_at) / Fold change /veh RGS16 (11746705_a_at) / RFU VCAN (11755009_s_at) / Fold change /veh VCAN (11755009_s_at) / RFU RHOB (11743442_s_at) / Fold change /veh RHOB (11743442_s_at) / RFU RGS16 (11720943_a_at) / Fold change /veh RGS16 (11720943_a_at) / RFU RGS16 (11720944_at) / Fold change /veh RGS16 (11720944_at) / RFU, VPS4B / Fold change vs veh, VPS4B / RFU, CREB1 / Fold change vs veh, CREB1 / RFU, DNAJC13 / Fold change vs veh, DNAJC13 / RFU, GNAQ / Fold change vs veh, GNAQ / RFU, CDK5R1 / Fold change vs veh, CDK5R1 / RFU, ZRANB3 / Fold change vs veh, ZRANB3 / RFU, CUL4A / Fold change vs veh, CUL4A / RFU, CCNY / Fold change vs veh, CCNY / RFU, UFL1 / Fold change vs veh, UFL1 / RFU, COG3 / Fold change vs veh, COG3 / RFU, DIAPH2 / Fold change vs veh, DIAPH2 / RFU, SKA2 / Fold change vs veh, SKA2 / RFU, AFF3 / Fold change vs veh, AFF3 / RFU, LMF1 / Fold change vs veh, LMF1 / RFU, IPO11 / Fold change vs veh, IPO11 / RFU, DFFB / Fold change vs veh, DFFB / RFU, FOXP1 / Fold change vs veh, FOXP1 / RFU, CARD8 / Fold change vs veh, CARD8 / RFU, STRN3 / Fold change vs veh, STRN3 / RFU, ADK / Fold change vs veh, ADK / RFU, RASSF2 / Fold change vs veh, RASSF2 / RFU, WIPF1 / Fold change vs veh, WIPF1 / RFU, LARP1B / Fold change vs veh, LARP1B / RFU, RASA1 / Fold change vs veh, RASA1 / RFU, RB1 / Fold change vs veh, RB1 / RFU, PPFIA1 / Fold change vs veh, PPFIA1 / RFU, MAT2A / Fold change vs veh, MAT2A / RFU, CCT5 / Fold change vs veh, CCT5 / RFU, WDR92 / Fold change vs veh, WDR92 / RFU, CUX1 / Fold change vs veh, CUX1 / RFU, TTC7A / Fold change vs veh, TTC7A / RFU, TMEM135 / Fold change vs veh, TMEM135 / RFU, DEPTOR / Fold change vs veh, DEPTOR / RFU, CPM / Fold change vs veh, CPM / RFU, DNAJB6 / Fold change vs veh, DNAJB6 / RFU, CACNA2D3 / Fold change vs veh, CACNA2D3 / RFU, DTX4 / Fold change vs veh, DTX4 / RFU, TFCP2 / Fold change vs veh, TFCP2 / RFU, GMCL1 /// GMCL1P1 / Fold change vs veh, GMCL1 /// GMCL1P1 / RFU, AEBP2 / Fold change vs veh, AEBP2 / RFU, SNHG1 /// SNORD22 /// SNORD25 /// SNORD26 /// SNORD27 /// SNORD28 /// SNORD29 /// SNORD31 / Fold change vs veh, SNHG1 /// SNORD22 /// SNORD25 /// SNORD26 /// SNORD27 /// SNORD28 /// SNORD29 /// SNORD31 / Fold change (Aza/veh), C12orf56 (ProbeSet 11735607_a_at) / Fold change (ACY-1035/veh), C12orf56 (ProbeSet 11735607_a_at) / Fold change (Aza/veh), FGFR1OP (ProbeSet 11751329_s_at) / Fold change (ACY-1035/veh), FGFR1OP (ProbeSet 11751329_s_at) / Fold change (Aza/veh), VPS36 (ProbeSet 11739960_a_at) / Fold change (ACY-1035/veh), VPS36 (ProbeSet 11739960_a_at) / RFU SYPL1 (11715823_x_at) / Fold change /veh SYPL1 (11715823_x_at) / RFU IGFBP7 (11715501_s_at) / Fold change /veh IGFBP7 (11715501_s_at) / RFU REEP3 (11722064_at) / Fold change /veh REEP3 (11722064_at) / RFU IGLL1 (11728026_x_at) / Fold change /veh IGLL1 (11728026_x_at): dose or concentration left out as unconfirmed
Details: ProbeSet 11745789_a_at; LIST D

Nc1ncn([C@@H]2O[C@H](CO)[C@@H](O)[C@H]2O)c(=O)n1 [azacitidine]
Fold change vs veh, TMEM135: 0.56
